Test results reported in US8592468B2, “Bacterial thioredoxin reductase inhibitors and methods for use thereof” (Thioredoxin Systems AB, priority 2006, dated 2013).
Values after ≈ are worked out from the molar mass of the structure shown. Read-outs that look alike come from different tables or passages of the source.

Assays:
wild type DHB4 E. coli = test: Bacterial inhibition by ebselen derivates, MIC; conditions: for MIC: Escherichia coli, DHB4E.COLI, 4 h, read-out: MIC for wild type DHB4 E. coli; for MIC for wild type DHB4 E. coli: LB, 37° C., 4 hrs, OD600 below 10% of DMSO control; for sensitivity of gshA^− or gor^− strains compared with wt strain: E. coli DHB4 strains
Method: (§5) E. coli DHB4 strains wt, gshA^−, gor^−, oxyR^− were cultured overnight in LB medium. […] OD 600 was detected and DMSO was used as the control. […] The data are the means of two experiments.

Gor^- DHB4 E. coli = test: Bacterial inhibition by ebselen derivates, MIC; conditions: for MIC: Escherichia coli, 4 h, read-out: MIC for Gor^- DHB4 E. coli; for MIC for Gor^- DHB4 E. coli: LB, 37° C., 4 hrs, OD600 below 10% of DMSO control
Method: as §5

E. coli TrxR [1] = target: T1, E. coli TrxR (Escherichia coli (strain K12), UniProt P0A9P4); test: Measurement of IC50 of ebselen derivates for E. coli TrxR (DTNB assay); format: biochemical
Method: For screening of different classes of ebselen derivatives as inhibitors of E. coli TrxR, the compounds of different concentration (1-40 μM) were incubated for a minute with mixture containing 100 nM E. coli TrxR, 200 μM NADPH and 2 μM of E. coli Trx. Then 1 mM DTNB was added and the enzyme activity was followed by the initial linear increase at A412 for 5 minutes.
(§1) All the benzisoselenazol-3(2H)-one and bisbenzisoselenazol-3(2H)-one derivatives were tested as potential E. coli TrxR inhibitors by standard DTNB assay. IC50 values were calculated by following the activity of TrxR reducing DTNB by NADPH at 412 nm. The reactions were started by adding 1 mM DTNB to the mixture of 100 nM TrxR, 2 μM Trx, 240 μM NADPH, and different concentration of inhibitor (1-40 μM). […] The reactions were started by adding 6 nM TrxR at room temperature. Inhibition constants (Ki) for all the compounds were measured from Dixon plot (FIGS. 12A-12F), which plots 1/v versus [I] (v=A412/min, I=Inhibitor concentration, FIGS. 12A-12F). Measured IC50 and Ki values (Table 5) indicate that the compounds EbSe 6-9, 12-16 are potent inhibitors for E. coli TrxR. The presence of covalent bond between selenium and nitrogen is so important for the biological property of ebselen derivatives.

E. coli TrxR [2] = target: T1, E. coli TrxR; test: Measurement of Ki of ebselen derivates for E. coli TrxR (Dixon plot, DTNB assay); format: biochemical
Method: The detailed inhibition studies using 0.001-4 μM inhibitor were performed in quartz cuvettes and the assay mixture of 500 μL containing E. coli TrxR (6 nM), E. coli Trx (1 or 2 or 4 μM), NADPH (240 μM), and DTNB (1 mM using Zeiss or Ultrospec 3000 Uv-visible spectrophotometer. E. coli TrxR activities were subsequently determined using the standard DTNB assay.
as §1

gshA^- DHB4 E. coli = test: Bacterial inhibition by ebselen derivates, MIC; conditions: LB, 37° C., 4 hrs, OD600 below 10% of DMSO control
Method: as §5

Mammalian TrxR [3] = target: Mammalian TrxR (Bos taurus (Bovine), UniProt O62768); test: Compounds as substrates of mammalian (calf thymus) TrxR, NADPH consumption; format: biochemical
Method: (§2) FIGS. 6A and 6B show ebselen and its sulphur analogue, PZ25, as substrates of calf-thymus TrxR and PZ25 as substrate of E. coli TrxR. In FIG. 6A, 10 μM of ebselen (▴) and 10 μM of PZ25 (▪) were used as substrate of 25 nM calf thymus TrxR. In FIG. 6B, 10 μM of PZ25 was used as substrate for 10 nM calf thymus TrxR (◯) and 10 nM of E. coli TrxR (●). Reactions were started by adding enzymes in cuvettes containing 500 μl TE buffer with 100 μM NADPH, of which the consumption were followed by the changes of the absorption at 340 nm against identical blank without enzymes.
Ebselen diselenide (Δ) and PZ25 disulfide (◯) were reduced with 10 nM calf thymus TrxR, while PZ25 disulphide was reduced by 10 nM of E. coli TrxR (●). Reactions were started by adding enzymes to cuvettes containing 500 μl TE buffer with 100 μM NADPH and 16 μM compounds. The NADPH consumption was followed by the changes of the absorption at 340 nm against identical blank without enzymes.
(§3) The activity of the enzyme was determined at room temperature using an Ultrospec 3000 UV/Visual spectrophotometer (Amersham Biosciences). Measurements of TrxR activity from both calf thymus and E. coli were performed in a buffer containing 50 mM Tris-Cl, 1 mM EDTA, pH 7.5, generally with 100 μM NADPH and the indicated amount of the drugs. The enzyme-catalysed reactions were followed at 340 nm using the standard calculation of NADPH oxidation to NADP^+ with a molar extinction coefficient of 6200 M^−1 cm^−1 (32, 34). The conditions of the assay of bacterial thioredoxin reductase have been described (32, 34) using either 1 mM DTNB or 160 μM insulin as a substrate. In DTNB coupled assays, 240 μM NADPH and 1 mM DTNB were used in the TE buffer and formation of the TNB was measured at 412 nm, where TNB has an extinction coefficient of 13600 M^−1 cm^−1.

E. coli TrxR [4] = target: T1, E. coli TrxR; format: biochemical
Method: as §2, with “In” for “FIGS. 6A and 6B show ebselen and its sulphur analogue, PZ25, as substrates of calf-thymus TrxR and PZ25 as substrate of E. coli TrxR. In”
Reactions were started by adding enzymes to cuvettes containing 500 μl TE buffer with 100 μM NADPH and 16 μM compounds. The NADPH consumption was followed by the changes of the absorption at 340 nm against identical blank without enzymes.
as §3, with “Measurements of TrxR activity from both calf thymus and E. coli were performed in a buffer containing 50 mM Tris-Cl, 1 mM EDTA, pH 7.5, generally with 100 μM NADPH and the indicated amount of the drugs.” left out
(§4) Further we examined the effect of ebselen in the reduction of disulphide by E. coli Trx and TrxR using both DTNB and insulin as substrates. […] FIGS. 4A and 4B show the effect of ebselen (4A) and ebselen diselenide (4B) on DTNB reduction by E. coli thioredoxin and thioredoxin reductase. Assays in semi-microcuvettes with 0.5 ml solution contained 0.24 mM NADPH, 1 mM DTNB in 50 mM Tris-Cl/1 mM EDTA, pH 7.5 buffer. (A) In the presence of 2 μM (grey filled points), 5 μM (white filled points) and 10 μM (black filled points) of E. coli Trx and 7.6 nM of E. coli TrxR with ebselen at concentrations of zero (squares), 0.5 μM (triangles), 1 μM (rhombus), and 2 μM (rounds), the increase in A412 was measured against a blank. (B) In the presence of 2 μM (grey filled points), 5 μM (white filled points) and 10 μM (black filled points) of E. coli Trx and 10 nM of E. coli TrxR, with ebselen diselenide at concentrations of zero (squares), 1 μM (triangles) and 2 μM (rounds), the increase in A412 was measured against a blank.

E. coli TrxR [5] = target: T1, E. coli TrxR; test: Inhibition of E. coli TrxR reduction of Trx, DTNB coupled assay (Lineweaver-Burk); format: biochemical
Method: FIGS. 4A and 4B show the effect of ebselen (FIG. 4A) and ebselen diselenide (FIG. 4B) on DTNB reduction by E. coli thioredoxin and thioredoxin reductase. Assays were contained in 0.50 ml semi-microcuvettes containing 0.24 mM NADPH, 1 mM DTNB in 0.10 M Tris-Cl, pH 8.0, 1 mM EDTA. The increase in A412 was measured against a blank using 10 nM E. coli TrxR in the presence of 2 μM (grey filled points), 5 μM (white filled points), 10 μM (black filled points) E. coli Trx with 0 (squares), 0.5 μM (triangles), 1 μM (rhombus), 2 μM (rounds) of ebselen or ebselen diselenide.
(A) Ebselen concentrations were 0 μM (▴), 0.5 μM (∀), 1 μM (▪) and 2 μM (Δ). […] (B) Ebselen concentrations were 0 μM (▴), 1 μM (▪) and 2 μM (∀).
as §3, with “Measurements of TrxR activity from both calf thymus and E. coli were performed in a buffer containing 50 mM Tris-Cl, 1 mM EDTA, pH 7.5, generally with 100 μM NADPH and the indicated amount of the drugs.” left out
as §4

H. pylori strains = test: Inhibition of the growth of H. pylori by PZ-25 (ebsulfur); format: cell-based
H. pylori TrxR = H. pylori TrxR (Helicobacter pylori (strain ATCC 700392 / 26695) (Campylobacter pylori), UniProt P56431); test: Inhibition of H. pylori TrxR by ebsulfur, insulin reduction assay; format: biochemical; conditions: 4, 20, and 40 μM
Method: H. pylori TrxR activity was followed by insulin reduction after 4 μM of H. pylori Trx addition, where a decrease in absorbance at 340 nm represents activity.

Staphylococcus aureus = conditions: compared with PZ51; cited from earlier work
Mammalian TrxR [6] = conditions: from reference; cited from earlier work
E. coli Trx-(SH)2 = E. coli Trx-(SH)2 (Escherichia coli (strain K12), UniProt P0AA25); conditions: fluorescence spectroscopy; cited from earlier work
[7] = 100 nM TrxR, 2 μM Trx, 1 mM DTNB, read-out: IC50 for E. coli TrxR
[8] = 6 nM TrxR, Trx 1, 2 or 4 μM, Dixon plot, read-out: Ki for E. coli TrxR

T1 sequence (P0A9P4 2-321 limits assumed): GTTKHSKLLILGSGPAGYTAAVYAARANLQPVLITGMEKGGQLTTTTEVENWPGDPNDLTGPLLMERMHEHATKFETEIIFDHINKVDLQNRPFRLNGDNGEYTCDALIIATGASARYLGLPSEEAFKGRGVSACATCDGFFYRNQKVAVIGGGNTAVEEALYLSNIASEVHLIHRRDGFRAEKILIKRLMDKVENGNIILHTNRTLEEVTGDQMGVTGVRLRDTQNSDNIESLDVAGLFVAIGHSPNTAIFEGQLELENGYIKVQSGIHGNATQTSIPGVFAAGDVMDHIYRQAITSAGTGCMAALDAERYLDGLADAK
Sequence of Mammalian TrxR (Bos taurus (Bovine), UniProt O62768) (O62768 whole entry, looked up): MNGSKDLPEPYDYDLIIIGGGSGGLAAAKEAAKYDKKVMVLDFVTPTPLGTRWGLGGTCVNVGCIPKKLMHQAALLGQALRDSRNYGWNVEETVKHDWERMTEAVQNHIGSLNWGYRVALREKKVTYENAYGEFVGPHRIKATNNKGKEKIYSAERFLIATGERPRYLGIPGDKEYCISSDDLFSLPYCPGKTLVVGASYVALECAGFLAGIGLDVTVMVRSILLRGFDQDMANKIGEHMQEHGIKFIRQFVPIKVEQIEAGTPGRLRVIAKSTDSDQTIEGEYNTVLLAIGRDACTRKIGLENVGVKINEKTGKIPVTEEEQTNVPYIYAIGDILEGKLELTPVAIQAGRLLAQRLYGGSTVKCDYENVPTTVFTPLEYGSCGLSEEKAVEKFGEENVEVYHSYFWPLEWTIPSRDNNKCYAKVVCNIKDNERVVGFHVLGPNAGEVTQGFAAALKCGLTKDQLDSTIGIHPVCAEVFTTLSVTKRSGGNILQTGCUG
Sequence of H. pylori TrxR (P56431 whole entry, looked up): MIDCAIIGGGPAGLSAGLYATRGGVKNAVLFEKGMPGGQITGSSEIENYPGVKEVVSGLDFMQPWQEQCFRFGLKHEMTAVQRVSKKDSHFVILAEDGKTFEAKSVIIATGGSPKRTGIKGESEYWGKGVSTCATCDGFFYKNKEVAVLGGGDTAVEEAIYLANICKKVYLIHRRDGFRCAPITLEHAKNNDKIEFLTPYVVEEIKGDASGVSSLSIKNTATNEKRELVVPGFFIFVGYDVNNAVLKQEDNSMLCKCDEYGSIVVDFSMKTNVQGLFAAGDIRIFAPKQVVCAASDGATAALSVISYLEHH

## O=c1c2ccccc2[se]n1-c1ccc(Cl)cc1 [EbSe 7]
Wild type DHB4 E. coli
  MIC: 34 µM (≈ 10.5 µg/mL)
Gor^- DHB4 E. coli
  MIC: 23 µM (≈ 7.1 µg/mL)

## Cc1cc(Cl)ccc1-n1[se]c2ccccc2c1=O [EbSe 8]
Wild type DHB4 E. coli
  MIC: 47 µM (≈ 15.2 µg/mL)
Gor^- DHB4 E. coli
  MIC: 24 µM (≈ 7.74 µg/mL)

## O=C(O)c1ccccc1-n1[se]c2ccccc2c1=O [EbSe 9]
E. coli TrxR [1]
  IC50: 7500 nM
E. coli TrxR [2]
  Ki: 1200 nM
Wild type DHB4 E. coli
  MIC: 49 µM (≈ 15.6 µg/mL)
Gor^- DHB4 E. coli
  MIC: 31 µM (≈ 9.86 µg/mL)

## O=C(O)c1ccc(-n2[se]c3ccccc3c2=O)cc1 [EbSe 10]
E. coli TrxR [1]
  IC50: 15000 nM

## O=c1c2ccccc2[se]n1-c1ccc(Cl)cn1 [EbSe 11]
E. coli TrxR [1]; [7]
  IC50: > 40000 nM
Wild type DHB4 E. coli
  MIC for wild type DHB4 E. coli: No Inhibition
gshA^- DHB4 E. coli
  MIC for gshA^- DHB4 E. coli: No Inhibition
Gor^- DHB4 E. coli
  MIC for Gor^- DHB4 E. coli: No Inhibition

## O=c1c2ccccc2[se]n1-c1ncccc1[N+](=O)[O-] [EbSe 12]
E. coli TrxR [1]; [7]
  IC50: 3000 nM
E. coli TrxR [2]; [8]
  Ki: 250 nM
Wild type DHB4 E. coli
  MIC for wild type DHB4 E. coli: No Inhibition
gshA^- DHB4 E. coli
  MIC for gshA^- DHB4 E. coli: No Inhibition
Gor^- DHB4 E. coli
  MIC for Gor^- DHB4 E. coli: No Inhibition

## O=c1c2ccccc2[se]n1-c1ccncc1 [EbSe 13]
Wild type DHB4 E. coli
  MIC: 45 µM (≈ 12.4 µg/mL)
Gor^- DHB4 E. coli
  MIC: 24 µM (≈ 6.6 µg/mL)

## O=c1c2ccccc2[se]n1CCn1[se]c2ccccc2c1=O [EbSe 14]
Wild type DHB4 E. coli
  sensitivity of gshA^− or gor^− strains compared with wt strain: same sensitivity
  MIC: 23 µM (≈ 9.71 µg/mL)
Gor^- DHB4 E. coli
  MIC: 19 µM (≈ 8.02 µg/mL)

## O=c1c2ccccc2[se]n1CCCn1[se]c2ccccc2c1=O [EbSe 15]
E. coli TrxR [2]; [8]
  Ki: 40 nM

## O=c1c2ccccc2[se]n1CCCCCCn1[se]c2ccccc2c1=O [EbSe 16]
Wild type DHB4 E. coli
  sensitivity of gshA^− or gor^− strains compared with wt strain: same sensitivity
  MIC: 20 µM (≈ 9.57 µg/mL)
Gor^- DHB4 E. coli
  MIC: 35 µM (≈ 16.7 µg/mL)

## O=C(Nc1ccccc1)c1ccccc1SSc1ccccc1C(=O)Nc1ccccc1 [PZ25 disulphide]
Mammalian TrxR [3]
  Km: 47 µM
  kcat: 25 s⁻¹
  kcat/KM: 533000 M⁻¹ s⁻¹
E. coli TrxR [4]; E. coli TrxR
  Km: 27.6 µM
  kcat: 1.67 s⁻¹
  kcat/KM: 60500 M⁻¹ s⁻¹

## O=c1c2ccccc2sn1-c1ccccc1 [PZ25]
E. coli TrxR [5]
  inhibition of E. coli TrxR (in words): not inhibitors
Mammalian TrxR [3]
  Km: 2.5 µM
  kcat: 23.33 s⁻¹
  kcat/KM: 9.33e+06 M⁻¹ s⁻¹
E. coli TrxR [4]; E. coli TrxR
  kcat: 11.7 s⁻¹
  kcat/KM: 4.67e+06 M⁻¹ s⁻¹
H. pylori strains; NCTC11637 strain
  MIC: 1.56 µg/mL (≈ 6.86 µM)
H. pylori strains; strain YS-16
  MIC: 0.39 µg/mL (≈ 1.72 µM)
H. pylori TrxR
  H. pylori TrxR activity: inhibited
Staphylococcus aureus
  antibacterial activity of the sulphur analogue: lost the antibacterial activity

## O=C(Nc1ccccc1)c1ccccc1[Se][Se]c1ccccc1C(=O)Nc1ccccc1 [ebselen diselenide]
E. coli TrxR [5]
  inhibition of E. coli TrxR (in words): strongly inhibited
E. coli TrxR [5]; Ki (competitive inhibitor of Trx reduction by E. coli TrxR), from Lineweaver-Burk slopes
  Ki: 460 ± 50 nM
E. coli TrxR [5]; read-out: Ki (competitive inhibitor of Trx reduction by E. coli TrxR), from Lineweaver-Burk slopes
  Ki: 460 nM
E. coli TrxR [4]
  oxidation of NADPH when directly added to E. coli TrxR and NADPH: no oxidations of NADPH
Mammalian TrxR [6]
  Km: 40 µM
  kcat: 1.32 s⁻¹
  kcat/KM: 33000 M⁻¹ s⁻¹
E. coli Trx-(SH)2
  second-order rate constant of reaction with reduced E. coli Trx: 1700 M⁻¹ s⁻¹
